Organism: Rattus norvegicus
Test: Open TG-GATES - Regimen: Single
Assay type: toxicity, organism-based, Sprague-Dawley
Parameters: regimen Single, gender Male, age 6 weeks
Conditions: in vivo, po, 750 mg/kg, route gavage, dose level High; for APTT / Bas / Eos / Fbg / Hb / Ht / Lym / MCH / MCHC / MCV / Mono / Neu / PT / Plat / RBC / Ret / WBC: tissue Blood; for KIDNEY_L / KIDNEY_R / KIDNEY_TOTAL: tissue Kidney; for LIVER: tissue Liver; for A/G / ALP / ALT / AST / BUN / CRE / Ca / Cl / DBIL / GLC / IP / K / LDH / Na / PL / RALB / TBIL / TC / TG / TP / gamma-GTP: tissue Plasma

Compound `CN(C/C=C/C#CC(C)(C)C)Cc1cccc2ccccc12` [TERBINAFINE] has a TERMINAL_BW (3 h) of 226.5 g, an APTT (3 h) of 19.1 s and a Bas (3 h) of 0.4%. It also gave an Eos (3 h) of 0.8%, a Fbg (3 h) of 220.4 mg/dL and a Hb (3 h) of 12.9 g/dL. It also gave a Ht (3 h) of 38.4%, a Lym (3 h) of 76.8% and an MCH (3 h) of 21.1 pg. It also gave an MCHC (3 h) of 33.5%, an MCV (3 h) of 63 fL and a Mono (3 h) of 1.8%. It also gave a Neu (3 h) of 19.8%, a PT (3 h) of 12.3 s and a Plat (3 h) of 120 x10_4/uL. It also gave an RBC (3 h) of 610.2 x10_4/ul, a Ret (3 h) of 7.2% and a WBC (3 h) of 85.9 x10_2/uL. The KIDNEY_L (3 h) was 1 g, the KIDNEY_R (3 h) was 1 g and the KIDNEY_TOTAL (3 h) was 2 g. The LIVER (3 h) was 9.8 g, the A/G (3 h) was 1.7 and the ALP (3 h) was 978.4 IU/L. For the same compound, the ALT (3 h) was 35.6 IU/L, the AST (3 h) was 69.2 IU/L and the BUN (3 h) was 9.8 mg/dL. It also gave a CRE (3 h) of 0.4 mg/dL, a Ca (3 h) of 10.6 mg/dL and a Cl (3 h) of 103 meq/L. The DBIL (3 h) was 0.08 mg/dL, the GLC (3 h) was 204.6 mg/dL and the IP (3 h) was 9.1 mg/dL. It also gave a K (3 h) of 3.7 meq/L, an LDH (3 h) of 180.8 IU/L and a Na (3 h) of 141.6 meq/L. It also gave a PL (3 h) of 128.6 mg/dL, an RALB (3 h) of 3.4 g/dL and a TBIL (3 h) of 0.1 mg/dL. The TC (3 h) was 76.4 mg/dL, the TG (3 h) was 36 mg/dL and the TP (3 h) was 5.5 g/dL. For the same compound, the gamma-GTP (3 h) was 1 IU/L, the TERMINAL_BW (6 h) was 226.5 g and the APTT (6 h) was 18 s. The Bas (6 h) was 0.6%, the Eos (6 h) was 0.8% and the Fbg (6 h) was 217.6 mg/dL. For the same compound, the Hb (6 h) was 12.8 g/dL, the Ht (6 h) was 37.9% and the Lym (6 h) was 77.6%. For the same compound, the MCH (6 h) was 21.6 pg, the MCHC (6 h) was 33.8% and the MCV (6 h) was 63.8 fL. For the same compound, the Mono (6 h) was 3%, the Neu (6 h) was 18% and the PT (6 h) was 12.2 s. The Plat (6 h) was 124.3 x10_4/uL, the RBC (6 h) was 595 x10_4/ul and the Ret (6 h) was 7.2%. The WBC (6 h) was 79 x10_2/uL, the KIDNEY_L (6 h) was 1 g and the KIDNEY_R (6 h) was 1 g. It also gave a KIDNEY_TOTAL (6 h) of 2 g, an LIVER (6 h) of 9.7 g and an A/G (6 h) of 1.7. For the same compound, the ALP (6 h) was 823.4 IU/L, the ALT (6 h) was 35.4 IU/L and the AST (6 h) was 70 IU/L. For the same compound, the BUN (6 h) was 12.4 mg/dL, the CRE (6 h) was 0.4 mg/dL and the Ca (6 h) was 10.5 mg/dL. The Cl (6 h) was 103.2 meq/L, the DBIL (6 h) was 0.082 mg/dL and the GLC (6 h) was 206.2 mg/dL. For the same compound, the IP (6 h) was 9.6 mg/dL, the K (6 h) was 3.9 meq/L and the LDH (6 h) was 174.2 IU/L. For the same compound, the Na (6 h) was 141 meq/L, the PL (6 h) was 121.2 mg/dL and the RALB (6 h) was 3.5 g/dL. For the same compound, the TBIL (6 h) was 0.1 mg/dL, the TC (6 h) was 68.2 mg/dL and the TG (6 h) was 36.6 mg/dL. For the same compound, the TP (6 h) was 5.5 g/dL, the gamma-GTP (6 h) was 0.8 IU/L and the TERMINAL_BW (9 h) was 225.4 g. It also gave an APTT (9 h) of 18.8 s, a Bas (9 h) of 0.6% and an Eos (9 h) of 1%. The Fbg (9 h) was 221.6 mg/dL, the Hb (9 h) was 12.8 g/dL and the Ht (9 h) was 38.2%. For the same compound, the Lym (9 h) was 73.2%, the MCH (9 h) was 21.3 pg and the MCHC (9 h) was 33.6%. The MCV (9 h) was 63.6 fL, the Mono (9 h) was 2.6% and the Neu (9 h) was 22.6%. The PT (9 h) was 12.3 s, the Plat (9 h) was 114 x10_4/uL and the RBC (9 h) was 601.8 x10_4/ul. For the same compound, the Ret (9 h) was 6.8%, the WBC (9 h) was 85 x10_2/uL and the KIDNEY_L (9 h) was 1 g. It also gave a KIDNEY_R (9 h) of 1 g, a KIDNEY_TOTAL (9 h) of 2 g and an LIVER (9 h) of 9.3 g. For the same compound, the A/G (9 h) was 1.7, the ALP (9 h) was 1027.6 IU/L and the ALT (9 h) was 32.8 IU/L. For the same compound, the AST (9 h) was 64.2 IU/L, the BUN (9 h) was 12.2 mg/dL and the CRE (9 h) was 0.4 mg/dL. The Ca (9 h) was 10 mg/dL, the Cl (9 h) was 103.6 meq/L and the DBIL (9 h) was 0.07 mg/dL. For the same compound, the GLC (9 h) was 205.6 mg/dL, the IP (9 h) was 10.4 mg/dL and the K (9 h) was 4 meq/L. It also gave an LDH (9 h) of 163.2 IU/L, a Na (9 h) of 141.2 meq/L and a PL (9 h) of 112.8 mg/dL. For the same compound, the RALB (9 h) was 3.4 g/dL, the TBIL (9 h) was 0.1 mg/dL and the TC (9 h) was 57.6 mg/dL. The TG (9 h) was 24.4 mg/dL, the TP (9 h) was 5.4 g/dL and the gamma-GTP (9 h) was 1 IU/L. For the same compound, the TERMINAL_BW (24 h) was 233.7 g, the APTT (24 h) was 18.6 s and the Bas (24 h) was 0.8%. For the same compound, the Eos (24 h) was 1%, the Fbg (24 h) was 216.6 mg/dL and the Hb (24 h) was 13.1 g/dL. It also gave a Ht (24 h) of 38.5%, a Lym (24 h) of 78.8% and an MCH (24 h) of 21.7 pg. It also gave an MCHC (24 h) of 34%, an MCV (24 h) of 64.1 fL and a Mono (24 h) of 3.4%. For the same compound, the Neu (24 h) was 15.6%, the PT (24 h) was 12.3 s and the Plat (24 h) was 122.8 x10_4/uL. For the same compound, the RBC (24 h) was 601.6 x10_4/ul, the Ret (24 h) was 6.4% and the WBC (24 h) was 81.1 x10_2/uL. For the same compound, the KIDNEY_L (24 h) was 1.1 g, the KIDNEY_R (24 h) was 1.1 g and the KIDNEY_TOTAL (24 h) was 2.2 g. The LIVER (24 h) was 10.8 g, the A/G (24 h) was 1.8 and the ALP (24 h) was 1101 IU/L. The ALT (24 h) was 51.6 IU/L, the AST (24 h) was 89.4 IU/L and the BUN (24 h) was 13.2 mg/dL. For the same compound, the CRE (24 h) was 0.4 mg/dL, the Ca (24 h) was 10.3 mg/dL and the Cl (24 h) was 103.6 meq/L. It also gave a DBIL (24 h) of 0.076 mg/dL, a GLC (24 h) of 203.4 mg/dL and an IP (24 h) of 8.6 mg/dL. The K (24 h) was 3.7 meq/L, the LDH (24 h) was 203.6 IU/L and the Na (24 h) was 141.6 meq/L. It also gave a PL (24 h) of 106 mg/dL, an RALB (24 h) of 3.6 g/dL and a TBIL (24 h) of 0.1 mg/dL. It also gave a TC (24 h) of 57.8 mg/dL, a TG (24 h) of 29.2 mg/dL and a TP (24 h) of 5.5 g/dL. It also gave a gamma-GTP (24 h) of 1.8 IU/L.

— ChEMBL document CHEMBL3885861, “Open TG-GATES”
